Measured values published in PubChem BioAssay (NCI).
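These data come from cells grown in 96-well plates and exposed to compound for 48 hours at five concentrations. TGI denotes the concentration required for complete inhibition of growth.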

Experiments:
Test in all cases: NCI tumour cell line growth inhibition, 48 h
786-0 renal = system: 786-0 renal
A498 renal = system: A498 renal
A549 NSCLC = system: A549 NSCLC
ACHN renal = system: ACHN renal
BT-549 breast = system: BT-549 breast
CAKI-1 renal = system: CAKI-1 renal
COLO 205 colon = system: COLO 205 colon
DU-145 prostate = system: DU-145 prostate
EKVX NSCLC = system: EKVX NSCLC
HCC-2998 colon = system: HCC-2998 colon
HCT-116 colon = system: HCT-116 colon
HCT-15 colon = system: HCT-15 colon
HOP-62 NSCLC = system: HOP-62 NSCLC
HOP-92 NSCLC = system: HOP-92 NSCLC
HS 578T breast = system: HS 578T breast
HT29 colon = system: HT29 colon
K-562 leukemia = system: K-562 leukemia
KM12 colon = system: KM12 colon
LOX IMVI melanoma = system: LOX IMVI melanoma
M14 melanoma = system: M14 melanoma
MALME-3M melanoma = system: MALME-3M melanoma
MDA-MB-231 breast = system: MDA-MB-231 breast
MDA-MB-435 = system: MDA-MB-435
MDA-N = system: MDA-N
MOLT-4 leukemia = system: MOLT-4 leukemia
NCI-H226 lung = system: NCI-H226 lung
NCI-H23 lung = system: NCI-H23 lung
NCI-H460 lung = system: NCI-H460 lung
NCI/ADR-RES ovarian = system: NCI/ADR-RES ovarian
OVCAR-3 ovarian = system: OVCAR-3 ovarian
OVCAR-4 ovarian = system: OVCAR-4 ovarian
OVCAR-5 ovarian = system: OVCAR-5 ovarian
OVCAR-8 ovarian = system: OVCAR-8 ovarian
RPMI-8226 leukemia = system: RPMI-8226 leukemia
RXF 393 renal = system: RXF 393 renal
SF-268 CNS = system: SF-268 CNS
SF-295 CNS = system: SF-295 CNS
SK-MEL-2 melanoma = system: SK-MEL-2 melanoma
SK-MEL-28 melanoma = system: SK-MEL-28 melanoma
SK-MEL-5 melanoma = system: SK-MEL-5 melanoma
SK-OV-3 ovarian = system: SK-OV-3 ovarian
SN12C renal = system: SN12C renal
SNB-19 CNS = system: SNB-19 CNS
SW-620 colon = system: SW-620 colon
T-47D breast = system: T-47D breast
TK-10 renal = system: TK-10 renal
U251 CNS = system: U251 CNS
UACC-257 melanoma = system: UACC-257 melanoma
UACC-62 melanoma = system: UACC-62 melanoma
UO-31 renal = system: UO-31 renal
CCRF-CEM leukemia = system: CCRF-CEM leukemia
HL-60(TB) leukemia = system: HL-60(TB) leukemia
IGROV1 ovarian = system: IGROV1 ovarian
MCF7 breast = system: MCF7 breast
NCI-H522 lung = system: NCI-H522 lung
PC-3 prostate = system: PC-3 prostate
SF-539 CNS = system: SF-539 CNS

Measured: TGI

O=C1/C(=C\c2cccc(Oc3ccccc3)c2)SC(c2ccccc2)N1c1cccc(Cl)c1 (centres undefined)
> 100 µM: 786-0 renal | A498 renal | A549 NSCLC | ACHN renal | BT-549 breast | CAKI-1 renal | COLO 205 colon | DU-145 prostate | EKVX NSCLC | HCC-2998 colon | HCT-116 colon | HCT-15 colon | HOP-62 NSCLC | HOP-92 NSCLC | HS 578T breast | HT29 colon | K-562 leukemia | KM12 colon | LOX IMVI melanoma | M14 melanoma | MALME-3M melanoma | MDA-MB-231 breast | MDA-MB-435 | MDA-N | MOLT-4 leukemia | NCI-H226 lung | NCI-H23 lung | NCI-H460 lung | NCI/ADR-RES ovarian | OVCAR-3 ovarian | OVCAR-4 ovarian | OVCAR-5 ovarian | OVCAR-8 ovarian | RPMI-8226 leukemia | RXF 393 renal | SF-268 CNS | SF-295 CNS | SK-MEL-2 melanoma | SK-MEL-28 melanoma | SK-MEL-5 melanoma | SK-OV-3 ovarian | SN12C renal | SNB-19 CNS | SW-620 colon | T-47D breast | TK-10 renal | U251 CNS | UACC-257 melanoma | UACC-62 melanoma | UO-31 renal

OC[C@@H](O)[C@H](O)[C@@H](O)/C=N/Nc1ccc(Cl)nn1
> 100 µM: 786-0 renal | A498 renal | A549 NSCLC | ACHN renal | BT-549 breast | CAKI-1 renal | CCRF-CEM leukemia | COLO 205 colon | DU-145 prostate | EKVX NSCLC | HCC-2998 colon | HCT-116 colon | HCT-15 colon | HL-60(TB) leukemia | HOP-62 NSCLC | HOP-92 NSCLC | HS 578T breast | HT29 colon | IGROV1 ovarian | KM12 colon | LOX IMVI melanoma | M14 melanoma | MALME-3M melanoma | MCF7 breast | MDA-MB-231 breast | MDA-MB-435 | MDA-N | MOLT-4 leukemia | NCI-H23 lung | NCI-H460 lung | NCI-H522 lung | NCI/ADR-RES ovarian | OVCAR-3 ovarian | OVCAR-4 ovarian | OVCAR-5 ovarian | OVCAR-8 ovarian | PC-3 prostate | RPMI-8226 leukemia | RXF 393 renal | SF-268 CNS | SF-295 CNS | SF-539 CNS | SK-MEL-2 melanoma | SK-MEL-28 melanoma | SK-MEL-5 melanoma | SK-OV-3 ovarian | SN12C renal | SNB-19 CNS | SW-620 colon | T-47D breast | TK-10 renal | U251 CNS | UACC-257 melanoma | UACC-62 melanoma
